# Measured values as given in US20090298811A1, “BENZIMIDAZOLONE DERIVATIVES” (Pfizer Inc, priority 2006, published 2009).
# Counter-ions that a name gives are not always drawn.
# How the values were obtained:
# human CB1 receptor [1] = biological target: T1, human CB1 receptor (Homo sapiens, UniProt P21554); assay: GTPγS binding on membranes of CHO cells expressing the human CB1 receptor; type: biochemical; design: expressed in transfected cells; host or cells: CHO cells (G418 selection); membranes; settings: CHO cell membranes, [35S] GTPγS
# Description: Membrane preparation: CHO cells expressing the human CB1 receptor were grown to 80% confluence in Ham's F-12 Nutrient Medium (Invitrogen) containing 10% fetal bovine serum (Invitrogen), 1% pen/strep (Invitrogen), 1% Nonessential amino acids (Invitrogen) and 500 μg/ml G418 (Invitrogen). Cells were released from flasks using Cell Dissociation Buffer (Invitrogen). Cells were pelleted by centrifugation at 500×G for 5 minutes. Membranes were prepared by resuspending cells in ice cold Assay Buffer (25 mM Tris pH 7.4, 5 mM EDTA, 5 mM EGTA, Complete Protease Inhibitor (Roche)). Cells were lysed with 12 strokes of a dounce homogenizer. Unlysed cells were pelleted by centrifugation at 500×G for 5 minutes. Membranes were pelleted by centrifugation at 25,000×G for 30 minutes. Membranes were resuspended in TEE, dounced 12 strokes, and pelleted a second time at 25,000×G for 30 minutes. Membrane pellet was resuspended in 50 mM Tris pH 7.4, 100 mM NaCl, 3 mM MgCl2, 0.2 mM EGTA, Complete Protease Inhibitor (Roche). Protein concentration was determined using the Micro-BCA Protein Assay Kit (Pierce) using BSA as a standard. Membranes were frozen and stored at −80 degrees Celsius until use. GTPγS Binding: 40 μl of test compound was incubated with 20 μl of [^35S] GTPγS (Perkin Elmer) (1250 Ci/millimole) and 140 μl of membrane homogenate (5 ug/well) in polypropylene 96-well plates (Corning). Final reaction conditions were 50 mM Tris pH 7.4, 100 mM NaCl, 3 mM […], 0.2 mM EGTA, 0.04% BSA. After incubation at 37 degrees Celsius for 45 minutes reactions were harvested by vacuum filtration through Unifilter GF/B-96 filters (Perkin Elmer) using a FilterMate Plate Harvester (Perkin Elmer). Filters were rinsed 4 times with ice cold 50 mM Tris pH 7.4, 3 mM MgCl2, 0.2 mM EGTA and dried at 50 degrees Celsius for at least 30 minutes. 40 μl of Microscint-20 (Perkin Elmer) was added per well, and plates were counted using a Top-Count Microplate Scintillation Counter (Perkin Elmer). Binding data were analyzed and EC50 values were calculated using Graph Pad Prism 4.0 Software.
# human CB1 receptor [2] = biological target: T1, human CB1 receptor; assay: Human CB1 receptor binding, [3H] CP-55,940 displacement on HEK cell membranes; design: expressed in transfected cells; membranes; settings: [3H] CP-55,940 500 pM
# Description: The Human CB1 receptor binding affinity and other biological activities of the compounds of this invention are determined by the following procedures.
# Membrane preparation: Human Embryonic Kidney (HEK) Cells expressing the human CB1 receptor under transcriptional regulation of a tetracycline inducible promoter were grown in Dulbecco's Modified Essential Medium with sodium pyruvate (Invitrogen, Carlsbad, Calif.) containing 10% tetracycline free fetal bovine serum (Clonetech, Mountain View, Calif.) 100 μg/ml hygromycin (Calbiochem, San Diego, Calif.), 5 μg/ml blasticidin (Invitrogen). CB1 receptor expression was induced by addition of 1 μg/ml doxycycline (Calbiochem) and incubation for an additional 24 hours. Cells were released from flasks using Cell Dissociation Buffer (Invitrogen). Cells were pelleted by centrifugation at 500×G for 5 minutes. Membranes were prepared by resuspending cells in ice cold TEE Buffer (25 mM Tris pH 7.4, 5 mM EDTA, 5 mM EGTA, Complete Protease Inhibitor (Roche, Basel, Switzerland)). Cells were lysed with 12 strokes of a dounce homogenizer. Unlysed cells were pelleted by centrifugation at 500×G for 5 minutes. Membranes were pelleted by centrifugation at 25,000×G for 30 minutes. Membranes were resuspended in TEE, dounced 12 strokes, and pelleted a second time at 25,000×G for 30 minutes. Membrane pellet was resuspended in 50 mM Tris pH 7.4, 100 mM NaCl, 3 mM MgCl2, 0.2 mM EGTA, Complete Protease Inhibitor (Roche). Protein concentration was determined using the Micro-BCA Protein Assay Kit (Pierce, Rockford, Ill.) using BSA as a standard. Membranes were quick frozen and stored at −80 degrees Celsius until use. Binding experiments: 50 μl of test compound was incubated with 50 μl, of [^3H] CP-55,940 (Perkin Elmer, Boston, Mass.) (final concentration 500 pM) and 150 μl of membrane homogenate (1 μg/well) in polypropylene 96-well plates (Corning, Acton, Mass.). Final reaction conditions were 50 mM Tris pH 7.4, 100 mM NaCl, 3 mM MgCl2, 0.2 mM EGTA, 0.04% BSA. Nonspecific binding was determined by incubation with 50 μM WIN-55,212-2 (Tocris, Ellisville, Mo.). After incubation at room temperature for 60 minutes reactions were harvested by vacuum filtration through Unifilter GF/B-96 filters (Perkin Elmer) that had been presoaked in assay buffer containing 0.5% BSA (Sigma, St. Louis, Mo.) using a FilterMate Plate Harvester (Perkin Elmer). Filters were rinsed 4 times with 50 mM Tris pH 7.4, 0.025% Tween20 and dried at 50 degrees Celsius for at least 30 minutes. 40 μl of Microscint-20 (Perkin Elmer) was added per well, and plates were counted using a Top-Count Microplate Scintillation Counter (Perkin Elmer). Binding data were analyzed and EC50 and Ki values calculated using Graph Pad Prism 4.0 Software.
# T1 sequence (P21554 whole entry): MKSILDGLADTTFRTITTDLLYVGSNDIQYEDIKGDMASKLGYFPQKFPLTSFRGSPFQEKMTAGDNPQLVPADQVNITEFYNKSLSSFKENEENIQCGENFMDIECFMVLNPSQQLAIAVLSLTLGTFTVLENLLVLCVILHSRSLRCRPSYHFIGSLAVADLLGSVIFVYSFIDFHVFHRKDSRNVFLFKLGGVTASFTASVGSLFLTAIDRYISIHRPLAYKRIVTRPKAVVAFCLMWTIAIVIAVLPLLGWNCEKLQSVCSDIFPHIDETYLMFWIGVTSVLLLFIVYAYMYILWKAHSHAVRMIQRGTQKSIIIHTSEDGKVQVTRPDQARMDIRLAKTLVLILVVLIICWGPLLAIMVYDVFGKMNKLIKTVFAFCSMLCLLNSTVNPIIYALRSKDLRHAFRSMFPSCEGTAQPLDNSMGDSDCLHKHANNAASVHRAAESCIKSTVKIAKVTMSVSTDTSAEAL
Structure (SMILES),melting point,EC50 (human CB1 receptor [1]),Ki (human CB1 receptor [2])
CC[C@H](C)[C@H](NC(=O)n1c(=O)n(CCN2CCCCC2)c2ccccc21)C(N)=O (as salt: hydrochloride),217.1 °C,–,–
CC(C)(C)[C@H](NC(=O)n1c(=O)n(CC2CCCCC2)c2cccc(F)c21)C(N)=O [Example 271],–,6.53 nM,1.28 nM
CC(C)(C)[C@H](NC(=O)n1c(=O)n(CC2CCOCC2)c2cc(F)ccc21)C(=O)NCCO [Example 356],–,219 nM,16.6 nM
CC(C)(C)[C@H](NC(=O)n1c(=O)n(CC2CCOCC2)c2ccccc21)C(=O)NC1CCC1 [Example 300],–,260 nM,41 nM
CN(C)CC(C)(C)CNC(=O)n1c(=O)n(CC2CCCCC2)c2ccccc21 [Example 182],–,267 nM,17 nM
CC(C)(C)[C@@H](CO)NC(=O)n1c(=O)n(CC2CCCCC2)c2ccccc21 [Example 176],–,82.4 nM,2.22 nM
CC(C)(C)[C@H](NC(=O)n1c(=O)n(CC2CCOCC2)c2ccccc21)C(=O)NC[C@H](O)CO [Example 345],–,1150 nM,52.8 nM
CC(C)(C)[C@H](NC(=O)n1c(=O)n(CC2CCCCC2)c2cc(F)ccc21)C(N)=O [Example 169],–,1 nM,0.28 nM
CC(C)(C)[C@H](NC(=O)n1c(=O)n(CC2CC=C(F)CC2)c2ccccc21)C(N)=O (some centres unmarked) [Example 304],–,0.87 nM,0.15 nM
O=C(NCc1ccoc1)n1c(=O)n(CC2CCOCC2)c2ccccc21 [Example 329],–,606 nM,28 nM
CC(C)(C)[C@H](NC(=O)n1c(=O)n(Cc2ccccc2)c2ccccc21)c1nnc(N)o1 [Example 359],–,79.2 nM,3.06 nM
O=C(N[C@H]1c2ccccc2C[C@H]1O)n1c(=O)n(CC2CCC2)c2ccccc21 [Example 189],–,1020 nM,88.4 nM
Cc1nc(C(F)(F)F)c(CNC(=O)n2c(=O)n(CC3CCOCC3)c3ccccc32)s1 [Example 349],–,157 nM,19.1 nM
CC(C)(C)[C@H](NC(=O)n1c(=O)n(CC2CCOCC2)c2ccccc21)C(=O)NCCO [Example 317],–,83.6 nM,12 nM
CCCCCn1c(=O)n(C(=O)N[C@H]2c3ccccc3C[C@H]2O)c2ccccc21 [Example 190],–,406 nM,8.09 nM
CCc1nc(CNC(=O)n2c(=O)n(CC3CCOCC3)c3ccccc32)cs1 [Example 328],–,167 nM,5.94 nM
CC(C)(C)[C@@H](CO)NC(=O)n1c(=O)n(CC2CCCCC2)c2cc(Br)ccc21 [Example 308],–,20.5 nM,5.38 nM
Cc1ccc2c(c1)n(C(=O)N[C@H](C(N)=O)C(C)(C)C)c(=O)n2CC1CCCCC1 [Example 167],–,44.9 nM,2.66 nM
"CC(C)(C)[C@H](NC(=O)n1c(=O)n(CC2CC=C(F)CC2)c2ccccc21)C(N)=O (single isomer, unassigned) [Example 305]",–,1.74 nM,0.18 nM

Structure (SMILES),melting point,EC50 (human CB1 receptor [1]),Ki (human CB1 receptor [2])
CC(C)(C)[C@H](NC(=O)n1c(=O)n(Cc2ccccc2)c2ccccc21)C(=O)NCCCO [Example 361],–,249 nM,24.7 nM
Cc1nc(C)c(CNC(=O)n2c(=O)n(CC3CCOCC3)c3ccccc32)s1 [Example 337],–,6490 nM,12.1 nM
CC(C)(C)[C@H](NC(=O)n1c(=O)n(CC2CCOCC2)c2cc(F)ccc21)C(=O)NC1CC1 [Example 310],–,173 nM,30.2 nM
CCc1nc(CNC(=O)n2c(=O)n(CC3CCOCC3)c3ccccc32)no1 [Example 327],–,> 10000 nM,36 nM
CC(C)(C)[C@H](NC(=O)n1c(=O)n(CC2CCOCC2)c2ccccc21)C(=O)NC1CC1 [Example 298],–,88.6 nM,5.27 nM
Cc1nc(C(C)NC(=O)n2c(=O)n(CC3CCOCC3)c3ccccc32)cs1 (centres unmarked) [Example 350],–,131 nM,13.4 nM
O=C(N[C@H]1CCCc2ccccc21)n1c(=O)n(CC2CCC2)c2ccccc21 [Example 198],–,46.5 nM,5.79 nM
Cc1ccc2c(c1)n(CC1CCCCC1)c(=O)n2C(=O)N[C@H](CC(C)C)C(N)=O [Example 267],–,> 10000 nM,18.4 nM
CCCCCn1c(=O)n(C(=O)N[C@H]2CCCc3ccccc32)c2ccccc21 [Example 199],–,40.1 nM,0.9 nM
CC(C)(C)[C@@H](CO)NC(=O)n1c(=O)n(CC2CCOCC2)c2cc(F)ccc21 [Example 301],–,268 nM,5.25 nM
CCCCCn1c(=O)n(C(=O)N[C@H](C(N)=O)C(C)(C)C)c2ccccc21 [Example 202],–,20.1 nM,4.52 nM
CC(C)(C)[C@H](NC(=O)n1c(=O)n(CC2CCCCC2)c2ccc(Cl)cc21)C(N)=O [Example 166],–,31.5 nM,2.52 nM
O=C(N[C@H]1CCCc2ccccc21)n1c(=O)n(CC2CCOCC2)c2ccccc21 [Example 276],–,5.8 nM,0.374 nM
CC(C)(C)[C@H](NC(=O)n1c(=O)n(CC2CCCCO2)c2ccccc21)C(N)=O (some centres unmarked) [Example 224],–,176 nM,29.9 nM
CC(C)(C)[C@H](NC(=O)n1c(=O)n(CC2CCOCC2)c2ccccc21)c1nnc(N)o1 [Example 319],–,96.3 nM,5.17 nM
O=C(N[C@H]1c2ccccc2C[C@H]1O)n1c(=O)n(CC2CCOCC2)c2ccccc21 [Example 280],–,136 nM,31 nM
CC(C)(C)[C@H](NC(=O)n1c(=O)n(CC2CCOCC2)c2cc(C#N)ccc21)C(N)=O [Example 272],–,45.4 nM,58 nM
Cc1ccc2c(c1)n(CC1CCCCC1)c(=O)n2C(=O)N[C@H](C(N)=O)C(C)C [Example 269],–,24 nM,2.95 nM
Cc1cccc2c1n(CCS(C)(=O)=O)c(=O)n2C(=O)N[C@H](C(=O)N(C)C)C(C)(C)C,190.7 °C,–,–
